Experimental data from patent US10669240B2, “5-substituted indazole-3-carboxamides and preparation and use thereof” (Samumed, LLC, priority 2014, dated 2020).

target: DYRK1A (Homo sapiens (Human), UniProt Q13627); assay: DYRK1A activity Tau assay: pSer396 Tau in SH-SY5Y cells by ELISA / western blot; assay type: cell-based; conditions: overnight (16-18 h) exposure
Excerpt: In another example, in vitro assays for DYRK1A biological activity may be used, e.g. regulation of microtubule-associated protein tau (MAPT/Tau) phosphorylation in neuronal cell line such as the human SH-SY5Y neuroblastoma cell line. Assays for DYRK1a-regulated level of phosphorylation can include monitoring levels of basal pSer396 Tau, which can be measured, for example, by serial dilutions of a candidate inhibitor composition using a ten micromolar top concentration and detected by ELISA or Western Blotting. An exemplary assay for DYRK-1a-regulated phosphorylation uses the SH-SY5Y cells cultured in a 96 well plate format for a period of time sufficient to stabilize microtubules and Tau phosphorylation, usually at least 2 days, then treated with a 1/3 serial dilution of compounds overnight and lysed. The cell lysate is resolved by SDS PAGE, then transferred to nitrocellulose and probed with an antibody specific for pSer396 Tau.
In a further example, the activity of a candidate compound can be measured by ELISA by adding the lysate mentioned above onto total Tau-coated plates and detected with a specific pSer396 antibody.

Q: Which EC50 does the source give for `O=C(NC1CC1)c1n[nH]c2ccc(-c3cncc(CN4CCCC4)c3)cc12` [Compound 148, N-Cyclopropyl-5-(5-(pyrrolidin-1-ylmethyl)pyridin-3-yl)-1H-indazole-3-carboxamide] here?
A: 0.011 µM

Q: `O=C(NC1CCCC1)c1n[nH]c2ccc(-c3cccnc3)cc12` [Compound 179, N-Cyclopentyl-5-(pyridin-3-yl)-1H-indazole-3-carboxamide] was tested. Which EC50 did it give?
A: 0.009 µM

Q: Which EC50 does the source give for `O=C(NC1CCCC1)c1n[nH]c2ccc(-c3cncc(N4CCCC4)c3)cc12` [Compound 181, N-Cyclopentyl-5-(5-(pyrrolidin-1-yl)pyridin-3-yl)-1H-indazole-3-carboxamide] here?
A: 0.047 µM

Q: How did the EC50 turn out when `O=C(NC1CCCCC1)c1n[nH]c2ccc(-c3cc(CN4CCCCC4)cc(F)c3F)cc12` [Compound 217, N-Cyclohexyl-5-(2,3-difluoro-5-(piperidin-1-ylmethyl)phenyl)-1H-indazole-3-carboxamide] was run?
A: 0.036 µM

Q: For `CC(C)(C)N1CCC(NC(=O)c2n[nH]c3ccc(-c4cncc(N5CCCC5)c4)cc23)CC1` [Compound 293, N-(1-(tert-Butyl)piperidin-4-yl)-5-(5-(pyrrolidin-1-yl)pyridin-3-yl)-1H-indazole-3-carboxamide], which EC50 is on record?
A: 0.022 µM

Q: With `C#CCN1CCC(NC(=O)c2n[nH]c3ccc(-c4cccnc4)cc23)CC1` [Compound 349, N-(1-(Prop-2-yn-1-yl)piperidin-4-yl)-5-(pyridin-3-yl)-1H-indazole-3-carboxamide] as the molecule, how does the EC50 read?
A: 0.005 µM

Q: Which EC50 does the source give for `CC#CCN1CCC(NC(=O)c2n[nH]c3ccc(-c4cccnc4)cc23)CC1` [Compound 369, N-(1-(But-2-yn-1-yl)piperidin-4-yl)-5-(pyridin-3-yl)-1H-indazole-3-carboxamide] here?
A: 0.007 µM

Q: Which EC50 does the source give for `O=C(Nc1ccnc(C(F)(F)F)c1)c1n[nH]c2ccc(-c3cncc(N4CCCC4)c3)cc12` [Compound 820, 5-(5-(Pyrrolidin-1-yl)pyridin-3-yl)-N-(2-(trifluoromethyl)pyridin-4-yl)-1H-indazole-3-carboxamide] here?
A: 0.081 µM

Q: How did the EC50 turn out when `O=C(Nc1cnc(C(F)(F)F)nc1)c1n[nH]c2ccc(-c3cncc(CN4CCCCC4)c3)cc12` [Compound 1116, 5-(5-(Piperidin-1-ylmethyl)pyridin-3-yl)-N-(2-(trifluoromethyl)pyrimidin-5-yl)-1H-indazole-3-carboxamide] was run?
A: 0.001 µM

Q: For `O=C(NC1CCN(Cc2ccccc2)CC1)c1n[nH]c2ccc(-c3cccnc3)cc12` [Compound 1152, N-(1-Benzylpiperidin-4-yl)-5-(pyridin-3-yl)-1H-indazole-3-carboxamide], which EC50 is on record?
A: 0.003 µM

Q: With `O=C(NC1CCN(CC(F)F)CC1)c1n[nH]c2ccc(-c3cccc(F)c3F)cc12` [Compound 1161, N-(1-(2,2-Difluoroethyl)piperidin-4-yl)-5-(2,3-difluorophenyl)-1H-indazole-3-carboxamide] as the molecule, how does the EC50 read?
A: 0.134 µM

Q: How did the EC50 turn out when `CN(C)CCNC(=O)c1n[nH]c2ccc(-c3cccc(F)c3F)cc12` [Compound 1165, 5-(2,3-Difluorophenyl)-N-(2-(dimethylamino)ethyl)-1H-indazole-3-carboxamide] was run?
A: 0.077 µM

Q: How did the EC50 turn out when `O=C(NC1CCN(CCF)CC1)c1n[nH]c2ccc(-c3cccnc3)cc12` [Compound 1180, N-(1-(2-Fluoroethyl)piperidin-4-yl)-5-(pyridin-3-yl)-1H-indazole-3-carboxamide] was run?
A: 0.006 µM

Q: Which EC50 does the source give for `O=C(NC1CCN(CC(F)F)CC1)c1n[nH]c2ccc(-c3cccnc3)cc12` [Compound 1181, N-(1-(2,2-Difluoroethyl)piperidin-4-yl)-5-(pyridin-3-yl)-1H-indazole-3-carboxamide] here?
A: 0.006 µM

Q: With `O=C(NC1CCN(CC(F)(F)F)CC1)c1n[nH]c2ccc(-c3cccnc3)cc12` [Compound 1182, 5-(Pyridin-3-yl)-N-(1-(2,2,2-trifluoroethyl)piperidin-4-yl)-1H-indazole-3-carboxamide] as the molecule, how does the EC50 read?
A: 0.008 µM

Q: For `O=C(NCCN1CCCC1)c1n[nH]c2ccc(-c3cccnc3)cc12` [Compound 1195, 5-(Pyridin-3-yl)-N-(2-(pyrrolidin-1-yl)ethyl)-1H-indazole-3-carboxamide], which EC50 is on record?
A: 0.004 µM

Q: `CN(C)Cc1cncc(-c2ccc3[nH]nc(C(=O)NC(C)(C)C)c3c2)c1` [Compound 1198, N-(tert-Butyl)-5-(5-((dimethylamino)methyl)pyridin-3-yl)-1H-indazole-3-carboxamide] was tested. Which EC50 did it give?
A: 0.491 µM

Q: For `CC(C)(C)NC(=O)c1n[nH]c2ccc(-c3cncc(CN4CCCC4)c3)cc12` [Compound 1200, N-(tert-Butyl)-5-(5-(pyrrolidin-1-ylmethyl)pyridin-3-yl)-1H-indazole-3-carboxamide], which EC50 is on record?
A: 0.374 µM

Q: Which EC50 does the source give for `CC(C)(C)NC(=O)c1n[nH]c2ccc(-c3cncc(CN4CCCCC4)c3)cc12` [Compound 1202, N-(tert-Butyl)-5-(5-(piperidin-1-ylmethyl)pyridin-3-yl)-1H-indazole-3-carboxamide] here?
A: 0.144 µM

Q: How did the EC50 turn out when `CC(C)(C)NC(=O)c1n[nH]c2ccc(-c3cncc(CN4CCC4)c3)cc12` [Compound 1206, 5-(5-(Azetidin-1-ylmethyl)pyridin-3-yl)-N-(tert-butyl)-1H-indazole-3-carboxamide] was run?
A: 0.207 µM

Q: How did the EC50 turn out when `CC(C)(C)NC(=O)c1n[nH]c2ccc(-c3cncc(CN4CC(F)(F)C4)c3)cc12` [Compound 1210, N-(tert-Butyl)-5-(5-((3,3-difluoroazetidin-1-yl)methyl)pyridin-3-yl)-1H-indazole-3-carboxamide] was run?
A: 0.128 µM

Q: `CC(C)(C)NC(=O)c1n[nH]c2ccc(-c3cncc(N4CCCC4)c3)cc12` [Compound 1214, N-(tert-Butyl)-5-(5-(pyrrolidin-1-yl)pyridin-3-yl)-1H-indazole-3-carboxamide] was tested. Which EC50 did it give?
A: 0.419 µM

Q: Which EC50 does the source give for `CCC(CC)NC(=O)c1n[nH]c2ccc(-c3cncc(N4CCCC4)c3)cc12` [Compound 1215, N-(Pentan-3-yl)-5-(5-(pyrrolidin-1-yl)pyridin-3-yl)-1H-indazole-3-carboxamide] here?
A: 0.199 µM

Q: For `CC(C)NC(=O)c1n[nH]c2ccc(-c3cncc(N4CCCC4)c3)cc12` [Compound 1245, N-Isopropyl-5-(5-(pyrrolidin-1-yl)pyridin-3-yl)-1H-indazole-3-carboxamide], which EC50 is on record?
A: 0.025 µM

Q: How did the EC50 turn out when `CCN(CC)Cc1cncc(-c2ccc3[nH]nc(C(=O)NC(C)C)c3c2)c1` [Compound 1246, 5-(5-((Diethylamino)methyl)pyridin-3-yl)-N-isopropyl-1H-indazole-3-carboxamide] was run?
A: 0.045 µM

Q: `CC(C)NC(=O)c1n[nH]c2ccc(-c3cncc(Cl)c3)cc12` [Compound 1247, 5-(5-Chloropyridin-3-yl)-N-isopropyl-1H-indazole-3-carboxamide] was tested. Which EC50 did it give?
A: 0.053 µM

Q: How did the EC50 turn out when `CC(C)NC(=O)c1n[nH]c2ccc(-c3cncnc3)cc12` [Compound 1248, N-Isopropyl-5-(pyrimidin-5-yl)-1H-indazole-3-carboxamide] was run?
A: 0.174 µM

Q: How did the EC50 turn out when `CC(C)NC(=O)c1n[nH]c2ccc(-c3cncc4ccccc34)cc12` [Compound 1249, N-Isopropyl-5-(isoquinolin-4-yl)-1H-indazole-3-carboxamide] was run?
A: 0.148 µM

Q: With `CC(C)NC(=O)c1n[nH]c2ccc(-c3cncc(F)c3)cc12` [Compound 1250, 5-(5-Fluoropyridin-3-yl)-N-isopropyl-1H-indazole-3-carboxamide] as the molecule, how does the EC50 read?
A: 0.049 µM

Q: With `CC(C)NC(=O)c1n[nH]c2cc(F)c(-c3cncc(F)c3)cc12` [Compound 1251, 6-Fluoro-5-(5-fluoropyridin-3-yl)-N-isopropyl-1H-indazole-3-carboxamide] as the molecule, how does the EC50 read?
A: 0.045 µM

Q: How did the EC50 turn out when `CCN(CC)Cc1cncc(-c2ccc3[nH]nc(C(=O)NC(C)(C)C)c3c2)c1` [Compound 1252, N-(tert-Butyl)-5-(5-((diethylamino)methyl)pyridin-3-yl)-1H-indazole-3-carboxamide] was run?
A: 0.421 µM

Q: For `CC(C)(C)NC(=O)c1n[nH]c2ccc(-c3cccnc3)cc12` [Compound 1253, N-(tert-Butyl)-5-(pyridin-3-yl)-1H-indazole-3-carboxamide], which EC50 is on record?
A: 0.15 µM

Q: How did the EC50 turn out when `CC(C)CNC(=O)c1n[nH]c2ccc(-c3cccnc3)cc12` [Compound 1254, N-Isobutyl-5-(pyridin-3-yl)-1H-indazole-3-carboxamide] was run?
A: 0.009 µM

Q: With `CC(C)CNC(=O)c1n[nH]c2ccc(-c3cncc(Cl)c3)cc12` [Compound 1255, 5-(5-Chloropyridin-3-yl)-N-isobutyl-1H-indazole-3-carboxamide] as the molecule, how does the EC50 read?
A: 0.035 µM

Q: `CC[C@@H](C)NC(=O)c1n[nH]c2ccc(-c3cncc(Cl)c3)cc12` [Compound 1256, (R)—N-(sec-butyl)-5-(5-chloropyridin-3-yl)-1H-indazole-3-carboxamide] was tested. Which EC50 did it give?
A: 0.122 µM

Q: Which EC50 does the source give for `CC[C@@H](C)NC(=O)c1n[nH]c2ccc(-c3cccnc3)cc12` [Compound 1257, (R)—N-(sec-butyl)-5-(pyridin-3-yl)-1H-indazole-3-carboxamide] here?
A: 0.014 µM

Q: Which EC50 does the source give for `CC[C@H](C)NC(=O)c1n[nH]c2ccc(-c3cccnc3)cc12` [Compound 1258, (S)—N-(sec-butyl)-5-(pyridin-3-yl)-1H-indazole-3-carboxamide] here?
A: 0.02 µM

Q: Which EC50 does the source give for `CN(C)CCCNC(=O)c1n[nH]c2ccc(-c3cccc(F)c3F)cc12` [Compound 1260, 5-(2,3-Difluorophenyl)-N-(3-(dimethylamino)propyl)-1H-indazole-3-carboxamide] here?
A: 0.135 µM

Q: `O=C(NCCN1CCCCC1)c1n[nH]c2ccc(-c3cccc(F)c3F)cc12` [Compound 1266, 5-(2,3-Difluorophenyl)-N-(2-(piperidin-1-yl)ethyl)-1H-indazole-3-carboxamide] was tested. Which EC50 did it give?
A: 0.075 µM

Q: How did the EC50 turn out when `O=C(NCCN1CCOCC1)c1n[nH]c2ccc(-c3cccc(F)c3F)cc12` [Compound 1268, 5-(2,3-Difluorophenyl)-N-(2-morpholinoethyl)-1H-indazole-3-carboxamide] was run?
A: 0.023 µM

Q: For `CCN(CC)Cc1cncc(-c2ccc3[nH]nc(C(=O)NC4CC4)c3c2)c1` [Compound 1270, N-Cyclopropyl-5-(5-((diethylamino)methyl)pyridin-3-yl)-1H-indazole-3-carboxamide], which EC50 is on record?
A: 0.007 µM

Q: For `O=C(NC1CC1)c1n[nH]c2ccc(-c3cncc(CN4CCC4)c3)cc12` [Compound 1271, 5-(5-(Azetidin-1-ylmethyl)pyridin-3-yl)-N-cyclopropyl-1H-indazole-3-carboxamide], which EC50 is on record?
A: 0.019 µM

Q: With `CN1CCC2(CC1)CC(NC(=O)c1n[nH]c3ccc(-c4cncc(F)c4)cc13)C2` [Compound 1277, 5-(5-Fluoropyridin-3-yl)-N-(7-methyl-7-azaspiro[3.5]nonan-2-yl)-1H-indazole-3-carboxamide] as the molecule, how does the EC50 read?
A: 0.011 µM
